These results are taken from US11111251B2, “Positive allosteric modulators of the muscarinic acetylcholine receptor M1” (Vanderbilt University, priority 2016, dated 2021).

The structures appear in SMILES notation. Where two headings read alike, the source gives them in different places.

This assay deals with T1, human mAChR M1 (Homo sapiens, UniProt P11229).
T1 sequence (P11229 1-460): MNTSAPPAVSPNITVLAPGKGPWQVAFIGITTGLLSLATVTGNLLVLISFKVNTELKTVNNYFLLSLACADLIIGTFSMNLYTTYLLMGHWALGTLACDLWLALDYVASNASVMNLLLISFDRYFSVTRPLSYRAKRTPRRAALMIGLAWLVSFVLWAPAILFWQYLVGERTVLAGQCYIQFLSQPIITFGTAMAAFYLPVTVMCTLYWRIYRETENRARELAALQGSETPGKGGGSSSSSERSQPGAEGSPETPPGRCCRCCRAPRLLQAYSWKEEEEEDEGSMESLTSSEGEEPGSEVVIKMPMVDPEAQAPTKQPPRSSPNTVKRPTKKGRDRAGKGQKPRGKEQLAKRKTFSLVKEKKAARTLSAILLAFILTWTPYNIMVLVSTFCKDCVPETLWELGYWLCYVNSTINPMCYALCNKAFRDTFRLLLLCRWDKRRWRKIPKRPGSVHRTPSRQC
Nature of the assay: mAChR M1 cell-based functional assay: calcium mobilization, positive allosteric modulator mode (increase in EC20 acetylcholine response). Conditions: for Emax: read-out: Human M1 Emax (%). Summed up:
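Calcium-flux assay in CHO-K1 cells stably expressing human M1, loaded with Fluo-4 AM (50 min, 37 °C) and read at 1 Hz. Compound (11-point, 1:3 series) was added at 4 s, EC20 acetylcholine at 144 s and EC80 at 230 s. PAM activity is the concentration-dependent rise in the EC20 response, fitted with a four-parameter logistic.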
For orientation: Calcium flux is commonly read through the fluorescence of an indicator in the cells.

The mark [1] stands for this setting: Table 2, human M1, read-out: Human M1 EC50.

With `Cn1ccc(-c2ccc(Cc3cc(C(=O)NCC4CCOC4)nc4ccn(C)c34)cn2)n1` (stereo not drawn) [Compound 509, 1-methyl-7-[[6-(1-methylpyrazol-3-yl)-3-pyridyl]methyl]-N-(tetrahydrofuran-3-ylmethyl)pyrrolo[3,2-b]pyridine-5-carboxamide;], the concentration for a half-maximal effect (EC50) under setting [1] worked out at 4320 nM. Moreover, for the setting “Table 2, human M1”, the Emax was 75.4%.
For `Cn1cc2c(-c3ccc(Oc4cc(C(=O)N[C@H]5COCC[C@@H]5O)nc5ccsc45)c(F)c3)cccc2n1` [Compound 14], the EC50 (Table 1, mAChR M1 cell-based functional assay, PAM mode, species not given, read-out: EC50) turned out to be 4250 nM.
Take `Cn1ccc(-c2ccc(Cc3cc(C(=O)NC4CCOCC4(C)C)nc4ccn(C)c34)cn2)n1` (stereo not drawn) [Compound 505, N-(3,3-dimethyltetrahydropyran-4-yl)-1-methyl-7-[[6-(1-methylpyrazol-3-yl)-3-pyridyl]methyl]pyrrolo[3,2-b]pyridine-5-carboxamide;]: the half-maximal effective concentration (EC50) under setting [1] turned out to be 752 nM. In addition, under “Table 2, human M1”, the Emax amounted to 79.4%.
On to `Cc1nc(-c2ccc(Cc3cc(C(=O)N4CCC[C@@H](O)C4)nc4ccsc34)cc2)co1` [Compound 173, [(3R)-3-hydroxy-1-piperidyl]-[7-[[4-(2-methyloxazol-4-yl)phenyl]methyl]thieno[3,2-b]pyridin-5-yl]methanone], for which the EC50 under setting [1] is greater than 10000 nM. The Emax (Table 2, human M1) was found to be 37%.
For `Cc1csc2c(Cc3ccc(-c4ccn(C)n4)cc3)cc(C(=O)NC3CCOCC3)nc12` [Compound 302, 3-methyl-7-[[4-(1-methylpyrazol-3-yl)phenyl]methyl]-N-tetrahydropyran-4-yl-thieno[3,2-b]pyridine-5-carboxamide], the EC50 under setting [1] worked out at 405 nM. Moreover, the Emax (Table 2, human M1) was 69.9%.
For `Cc1ccc(Cc2cc(C(=O)N[C@H]3CCCC[C@@H]3O)nc3ccsc23)cn1` [Compound 1, N-((1S,2S)-2-Hydroxycyclohexyl)-7-((6-methylpyridin-3-yl)methyl)thieno[3,2-b]pyridine-5-carboxamide], the EC50 came out at 87 nM.
`O=C(N[C@H]1CCCC[C@@H]1O)c1cc(Cc2ccc(-c3cncs3)cc2)c2sccc2n1` [Compound 395, N-[(1S,2S)-2-hydroxycyclohexyl]-7-[(4-thiazol-5-ylphenyl)methyl]thieno[3,2-b]pyridine-5-carboxamide]: the EC50 under setting [1] is 18.5 nM. Moreover, the Emax (Table 2, human M1) is 60.1%.
On the same counts, the results for `Cn1cc(-c2cc(F)c(Cc3cc(C(=O)N[C@H]4CCOC[C@@H]4O)nc4ccsc34)c(F)c2)cn1` [Compound 59, 7-[[2,6-difluoro-4-(1-methylpyrazol-4-yl)phenyl]methyl]-N-[(3R,4S)-3-hydroxytetrahydropyran-4-yl]thieno[3,2-b]pyridine-5-carboxamide] are 2840 nM and 88.5%.
For the molecule `Cn1ccc(-c2ccc(Cc3cc(C(=O)NC4CN(C5COC5)C4)nc4ccsc34)cn2)n1` [Compound 425], the EC50 under setting [1] is 5140 nM. Moreover, where the note is “Table 2, human M1”, the maximal response (Emax) amounted to 65.8%.
For `Cn1ccc2nc(C(=O)N[C@H]3CCOC[C@@H]3O)cc(Cc3ccc(-c4cscn4)cc3)c21` [Compound 450, N-[(3R,4S)-3-hydroxytetrahydropyran-4-yl]-1-methyl-7-[(4-thiazol-4-ylphenyl)methyl]pyrrolo[3,2-b]pyridine-5-carboxamide], under setting [1], the EC50 came to 6.89 nM. Moreover, the Emax (Table 2, human M1) was found to be 71%.
The corresponding values for `CO[C@@H]1CCCC[C@H]1NC(=O)c1cc(Cc2cnc(C)s2)c2sccc2n1` [Compound 139, N-[(1R,2R)-2-methoxycyclohexyl]-7-[(2-methylthiazol-5-yl)methyl]thieno[3,2-b]pyridine-5-carboxamide] are greater than 10000 nM and 51.1%.
The corresponding values for `Cc1nn(C)cc1-c1ccc(Cc2cc(C(=O)N[C@H]3COCC[C@@H]3O)nc3ccsc23)cc1` [Compound 249, 7-[[4-(1,3-dimethylpyrazol-4-yl)phenyl]methyl]-N-[(3S,4S)-4-hydroxytetrahydropyran-3-yl]thieno[3,2-b]pyridine-5-carboxamide] are greater than 10000 nM and 42.1%.
For the molecule `Cn1ccc2nc(C(=O)N[C@H]3CCCC[C@@H]3O)cc(Cc3ccc(-c4nccs4)cc3)c21` [Compound 479, N-[(1S,2S)-2-hydroxycyclohexyl]-1-methyl-7-[(4-thiazol-2-ylphenyl)methyl]pyrrolo[3,2-b]pyridine-5-carboxamide], the EC50 under setting [1] amounted to 41 nM. Besides, where the note is “Table 2, human M1”, the Emax was 52.5%.
On to `O=C(NC1CN(C2COC2)C1)c1cc(Cc2ccc(-n3cccn3)cc2)c2sccc2n1` [Compound 433, N-[1-(oxetan-3-yl)azetidin-3-yl]-7-[(4-pyrazol-1-ylphenyl)methyl]thieno[3,2-b]pyridine-5-carboxamide], for which, under setting [1], the concentration giving a half-maximal response (EC50) was found to be 1770 nM. Further, where the note is “Table 2, human M1”, the maximal effect (Emax) came to 65.4%.
Regarding `COC1CC(NC(=O)c2cc(Cc3ccc(-n4cccn4)cc3)c3sccc3n2)C1` (stereo not drawn) [Compound 431, N-(3-methoxycyclobutyl)-7-[(4-pyrazol-1-ylphenyl)methyl]thieno[3,2-b]pyridine-5-carboxamide], the EC50 under setting [1] is 1480 nM. For the same molecule, the Emax (Table 2, human M1) came out at 69.3%.
On the same counts, the results for `O=C(NC1CCS(=O)(=O)C1)c1cc(Cc2ccc(-n3cccn3)cc2)c2sccc2n1` (stereo not drawn) [Compound 439, N-(1,1-dioxothiolan-3-yl)-7-[(4-pyrazol-1-ylphenyl)methyl]thieno[3,2-b]pyridine-5-carboxamide] are 400 nM and 68.1%.
On the same counts, the results for `Cc1csc2c(Cc3ccc(-n4cccn4)cc3)cc(C(=O)NCC3CCO3)nc12` (stereo not drawn) [Compound 324, 3-methyl-N-(oxetan-2-ylmethyl)-7-[(4-pyrazol-1-ylphenyl)methyl]thieno[3,2-b]pyridine-5-carboxamide] are 1050 nM and 78.9%.
The corresponding values for `Cc1nc(-c2ccc(Cc3cc(C(=O)NC4CCOC(C)(C)C4)nc4ccsc34)cc2)co1` (stereo not drawn) [Compound 300, N-(2,2-dimethyltetrahydropyran-4-yl)-7-[[4-(2-methyloxazol-4-yl)phenyl]methyl]thieno[3,2-b]pyridine-5-carboxamide] are 225 nM and 75.3%.
Take `Cc1csc2c(Cc3ccc(-n4cccn4)cc3)cc(C(=O)NC3CCN(C)CC3)nc12` [Compound 124, 3-methyl-N-(1-methyl-4-piperidyl)-7-[(4-pyrazol-1-ylphenyl)methyl]thieno[3,2-b]pyridine-5-carboxamide]: the EC50 under setting [1] stood at 2460 nM. Further, the Emax (Table 2, human M1) came to 64.4%.
On the same counts, the results for `Cc1ccc(Cc2cc(C(=O)N[C@H]3CC[C@@H]3O)nc3c(C)csc23)cn1` [Compound 99] are 7300 nM and 77.7%.
The corresponding values for `Cc1nc(-c2ccc(Cc3cc(C(=O)NC4CCOCC4)nc4c(C)csc34)cc2)co1` [Compound 329, 3-methyl-7-[[4-(2-methyloxazol-4-yl)phenyl]methyl]-N-tetrahydropyran-4-yl-thieno[3,2-b]pyridine-5-carboxamide] are 458 nM and 73.5%.
For the molecule `Cn1cc(-c2ccc(Cc3cc(C(=O)NCC4CCOC4)nc4ccsc34)cn2)cn1` (stereo not drawn) [Compound 348, 7-[[6-(1-methylpyrazol-4-yl)-3-pyridyl]methyl]-N-(tetrahydrofuran-3-ylmethyl)thieno[3,2-b]pyridine-5-carboxamide], the EC50 under setting [1] came out at 128 nM. Moreover, the Emax (Table 2, human M1) came out at 85.6%.

The EC50 is the concentration giving half of the maximal effect. Usually Emax stands for the greatest response seen or fitted, relative to the assay's reference.
